Experimental data published in the Deep4Chem optical property database.
Blank lines part the entries; values can stand above or below the compound they belong to.

Experiment: solvent given as SMILES

SMILES: CCN1/C(=C\c2c(-c3ccc(N(C)C)cc3)c(=O)c2=O)C=Cc2ccccc21
- absorption maximum (in C1CCCCC1): 359 nm
- absorption maximum (in Cc1ccccc1): 362 nm
- absorption maximum (in ClCCl): 509 nm

SMILES: CN(C)c1ccc(/C=C/C=C/c2nc3ccccc3o2)cc1
- absorption maximum (in C1COCCO1): 411 nm
- absorption maximum (in CC#N): 410 nm
- absorption maximum (in CC(C)=O): 409 nm
- absorption maximum (in CCCCCC): 401 nm
- absorption maximum (in CCCCO): 417 nm
- absorption maximum (in CCCO): 417 nm
- absorption maximum (in CCO): 417 nm
- absorption maximum (in CN(C)C=O): 419 nm
- absorption maximum (in CO): 417 nm
- absorption maximum (in Cc1ccccc1): 413 nm
- absorption maximum (in ClC(Cl)(Cl)Cl): 406 nm
- absorption maximum (in ClC(Cl)Cl): 414 nm
- absorption maximum (in ClCCl): 415 nm
- absorption maximum (in OCC(O)CO): 424 nm
- absorption maximum (in OCCO): 424 nm
- absorption maximum (in c1ccccc1): 411 nm

SMILES: CC1(C)c2ccccc2N(c2ccc(-c3cnc(C#N)nc3)cc2)c2ccccc21
- absorption maximum (in Cc1ccccc1): 384 nm

SMILES: CN(C)c1ccc(C(=Cc2ccc(/C=C/c3ccc(C#N)cc3)cc2)c2ccc(N(C)C)cc2)cc1
- absorption maximum (in C1CCOC1): 415 nm

SMILES: CC(=O)[B-]1(C(C)=O)OC(c2ccccc2)=CC(c2ccc3ccccc3c2)=[O+]1
- absorption maximum (in CC#N): 400 nm
- absorption maximum (in ClC(Cl)(Cl)Cl): 400 nm

SMILES: CCC1(CC)c2cc(-c3ccc(-c4ccc5c(c4)C(CC)(CC)c4cc(C(C)(C)C)ccc4-5)cc3)ccc2-c2ccc(C(C)(C)C)cc21
- absorption maximum (in CO): 332.42 nm

SMILES: COc1ccc2cc(C3=[N+]4C(=Nc5c(-c6ccc7ccccc7c6)cc(-c6ccc7cc(OC)ccc7c6)n5[B-]4(F)F)C(c4ccc5ccccc5c4)=C3)ccc2c1
- absorption maximum (in ClCCl): 718 nm

SMILES: C(=C\c1ccc(N(c2ccccc2)c2ccccc2)cc1)/c1ccc(-c2cc(-c3ccccn3)nc(-c3ccccn3)c2)cc1
- absorption maximum (in C1CCOC1): 382 nm
- absorption maximum (in C1COCCO1): 382 nm
- absorption maximum (in CC#N): 379 nm
- absorption maximum (in CCO): 379 nm
- absorption maximum (in ClCCl): 383 nm

SMILES: CC1=[N+]2C(=C(Oc3ccccc3)c3ccc(C)n3[B-]2(F)F)C=C1c1cc2n(c1)[B-](F)(F)[N+]1=CC=CC1=C2c1c(C)cc(C)cc1C
- absorption maximum (in C1CCCCC1): 582 nm
- absorption maximum (in CCOC(C)=O): 577 nm

SMILES: Cc1sc(-c2ccc(-c3nc(-c4ccccc4)c(-c4ccccc4)[nH]3)cc2)c(C)c1C1=C(c2c(C)n(C)c3ccccc23)C(F)(F)C(F)(F)C1(F)F
- absorption maximum (in C1CCOC1): 313 nm

SMILES: Cc1ccc2c(c1)C1(c3ccccc3Oc3ccccc31)c1cc(C)ccc1N2c1ccc(-c2nc(-c3ccccc3)cc(-c3ccccc3)n2)cc1
- absorption maximum (in Cc1ccccc1): 378 nm

SMILES: c1ccc2c(c1)Sc1ccccc1N2c1ccc2c(c1)C1(CC1)c1cc(N3c4ccccc4Sc4ccccc43)ccc1-2
- absorption maximum (in Cc1ccccc1): 307 nm

SMILES: CN(C)c1ccc(/C=C/c2cc[n+](CCCOCC(COCCC[n+]3ccc(/C=C/c4ccc(N(C)C)cc4)cc3)(COCCC[n+]3ccc(/C=C/c4ccc(N(C)C)cc4)cc3)COCCC[n+]3ccc(/C=C/c4ccc(N(C)C)cc4)cc3)cc2)cc1
- absorption maximum (in C1COCCO1): 460 nm
- absorption maximum (in CC(C)O): 479 nm
- absorption maximum (in CCCCCCCCO): 485 nm
- absorption maximum (in CCCCO): 480 nm
- absorption maximum (in CCCO): 482 nm
- absorption maximum (in CCO): 484 nm
- absorption maximum (in CO): 486 nm
- absorption maximum (in CS(C)=O): 479 nm
- absorption maximum (in ClC(Cl)Cl): 489 nm
- absorption maximum (in ClCCl): 489 nm

SMILES: Cc1ccc(-n2c(C)ccc2C)cc1
- absorption maximum (in CC#N): 234 nm
- absorption maximum (in CCCCCC): 238 nm

SMILES: COc1cccc2oc(-c3cc4c(OC)cccc4oc3=O)cc12
- absorption maximum (in CC#N): 383 nm
- absorption maximum (in CCOC(C)=O): 385 nm
- absorption maximum (in CS(C)=O): 389 nm
- absorption maximum (in Cc1ccccc1): 389 nm
- absorption maximum (in O): 384 nm

SMILES: COc1ccc(-c2nnc(-c3cc(-n4c5ccccc5c5ccccc54)c(-n4c5ccccc5c5ccccc54)cc3-c3nnc(-c4ccc(OC)cc4)o3)o2)cc1
- absorption maximum (in ClCCl): 353 nm

SMILES: CCC1(CC)c2cc(-c3ccc(C(C)(C)C)cc3)ccc2-c2ccc(-c3ccc4c(c3)C(CC)(CC)c3cc(-c5ccc6c(c5)C(CC)(CC)c5cc(-c7ccc(C(C)(C)C)cc7)ccc5-6)ccc3-4)cc21
- absorption maximum (in CO): 360.54 nm

SMILES: C[Si]1(C)c2cc(C#Cc3ccccc3)ccc2C=Cc2ccc(C#Cc3ccccc3)cc21
- absorption maximum (in ClCCl): 403 nm

SMILES: CC(=O)c1ccc(/N=N/c2ccc(Nc3ccccc3)cc2)cc1
- absorption maximum (in C1CCOC1): 438 nm
- absorption maximum (in CC#N): 432 nm
- absorption maximum (in CC(=O)O): 544 nm
- absorption maximum (in CN(C)C=O): 452 nm
- absorption maximum (in CO): 443 nm
- absorption maximum (in CS(C)=O): 459 nm
- absorption maximum (in Cc1ccccc1): 429 nm
- absorption maximum (in ClC(Cl)Cl): 427 nm
- absorption maximum (in ClCCl): 432 nm

SMILES: FC(F)(F)c1cc2n(n1)[B-]1(c3ccccc3-c3ccccc31)[n+]1ccc3ccccc3c1-2
- absorption maximum (in C1CCCCC1): 373 nm
- absorption maximum (in Cc1ccccc1): 375 nm
- absorption maximum (in ClCCl): 373 nm

SMILES: C(#Cc1cccs1)C(C#Cc1cccs1)=Cc1ccc(C=C(C#Cc2cccs2)C#Cc2cccs2)cc1
- absorption maximum (in ClC(Cl)Cl): 438 nm

SMILES: CN(C)c1ccc(/C=C/C(=O)c2ccc(Cl)cc2)cc1
- absorption maximum (in C1CCOC1): 413 nm
- absorption maximum (in CC#N): 419 nm
- absorption maximum (in CC(=O)O): 430 nm
- absorption maximum (in CC(C)=O): 418 nm
- absorption maximum (in CCO): 429 nm
- absorption maximum (in CN(C)C=O): 427 nm
- absorption maximum (in CO): 428 nm
- absorption maximum (in Cc1ccccc1): 416 nm
- absorption maximum (in ClC(Cl)Cl): 426 nm
- absorption maximum (in c1ccccc1): 420 nm

SMILES: CCCCCCCCOc1ccc(-c2c3c4n(c(-c5ccc(OCCCCCCCC)cc5)c3c3n2[B-](F)(F)[n+]2c(sc5ccccc52)N=3)[B-](F)(F)[n+]2c(sc3ccccc32)N=4)cc1
- absorption maximum (in ClC(Cl)Cl): 655 nm

Other lines, results leading:

- absorption maximum (in CC#N): 322 nm
SMILES: C[C@@]12SC(Cl)=CC1=c1nc(-c3ccccc3)[nH]c1=C1C=C(Cl)S[C@]12C

- absorption maximum (in ClC(Cl)Cl): 432 nm
SMILES: Cc1ccc(C2=Cc3ccc4ccccc4[n+]3[B-](F)(F)O2)cc1

- absorption maximum (in CCO): 362 nm
SMILES: Cc1nc2cc3c4c(cccc4c2o1)C(=O)OC3=O

- absorption maximum (in O): 409 nm
SMILES: O=C(O)CCCCCNC(=O)c1cccc2c(=O)c3ccccc3[nH]c12

- absorption maximum (in C1CCOC1): 385 nm
SMILES: c1cc2c3c(c1)-c1cccc4ccn(c14)B3n1ccc3cccc-2c31

- absorption maximum (in CC#N): 295 nm
SMILES: COc1cccc(/C=C/c2ccccc2)c1

- absorption maximum (in ClCCl): 312 nm
SMILES: CCCCCCn1c2c(c3ccccc31)-c1c(c3ccccc3n1CCCCCC)-c1c(c3ccccc3n1CCCCCC)-c1c-2c2ccccc2n1CCCCCC

- absorption maximum (in C1CCOC1): 347 nm
- absorption maximum (in ClCCl): 350 nm
SMILES: O=P1(c2ccccc2)C(c2ccccc2)=Cc2ccccc21 (stereo not drawn)

- absorption maximum (in C1COCCO1): 423 nm
SMILES: COC(=O)c1ccc(/C=C2\C=C(c3ccc(OC)c(OC)c3)OC2=O)cc1

- absorption maximum (in CC#N): 555 nm
- absorption maximum (in CCO): 543 nm
- absorption maximum (in CN(C)C=O): 562 nm
- absorption maximum (in O): 558 nm
SMILES: CCCCOC(=O)c1ccccc1-c1c2ccc(=[N+](CC)CC)cc-2oc2cc(N(CC)CC)ccc12

- absorption maximum (in CS(C)=O): 405 nm
- absorption maximum (in ClC(Cl)Cl): 393 nm
SMILES: CCCCCCn1c2ccccc2c2cc(/C=C/c3cc(=O)oc4cc(C)ccc34)ccc21

- absorption maximum (in CCO): 590 nm
- absorption maximum (in O): 580 nm
SMILES: CC/[NH+]=c1\cc2oc3cc(NCCC(=O)NC(C(=O)OC)C(C)C)c4ccccc4c3nc-2cc1C (stereo not drawn)

- absorption maximum (in C1CCOC1): 408 nm
- absorption maximum (in CCCCCC): 403 nm
- absorption maximum (in ClC(Cl)Cl): 405 nm
- absorption maximum (in ClCCl): 419 nm
SMILES: O=C1c2cccc3c(-n4c5ccccc5c5ccccc54)ccc(c23)C(=O)N1c1ccccc1

- absorption maximum (in ClCCl): 368 nm
SMILES: CC(=O)c1c(N[C@@H](Cc2ccc(O)cc2)C(=O)O)c2ccc(N(C)C)cc2oc1=O

- absorption maximum (in CCO): 382 nm
SMILES: COc1ccc(C(=O)COc2c(C)c(=O)n3c(=O)c(C)c(COC(=O)c4ccccc4Cl)n23)cc1
